Counter-ions that a name gives are not always drawn.

By IC50 is commonly meant the point on the concentration scale where inhibition reaches its midpoint.

The target of this assay is T1, human α2C receptor (Homo sapiens, UniProt P18825).
T1 construct: expressed in transfected cells; host or cells: CHO cells, also recombinantly expressing chimeric G protein Gαqi3 and mitochondrial obelin (mtOb)
T1 sequence (P18825 1-462): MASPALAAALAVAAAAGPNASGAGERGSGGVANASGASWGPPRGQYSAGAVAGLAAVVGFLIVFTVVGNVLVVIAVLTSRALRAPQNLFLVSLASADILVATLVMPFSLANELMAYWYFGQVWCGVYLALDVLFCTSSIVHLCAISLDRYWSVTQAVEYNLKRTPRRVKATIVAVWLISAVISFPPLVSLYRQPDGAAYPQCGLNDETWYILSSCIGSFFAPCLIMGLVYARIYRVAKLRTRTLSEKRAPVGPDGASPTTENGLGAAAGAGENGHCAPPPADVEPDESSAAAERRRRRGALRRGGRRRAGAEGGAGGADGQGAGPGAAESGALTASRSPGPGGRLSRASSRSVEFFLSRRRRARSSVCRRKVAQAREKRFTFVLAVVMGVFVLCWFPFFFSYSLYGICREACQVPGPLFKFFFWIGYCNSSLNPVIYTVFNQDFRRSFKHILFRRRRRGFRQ
The experiment in a line: Antagonism against the adrenoreceptor α2C (luminescence, recombinant CHO cell line). The class given is cell-based. Particulars: antagonism against adrenoreceptor α2C; noradrenaline 20 nM; tested up to 10 μM; read-out: IC50. As for the experimental part:
Antagonism against the adrenoreceptor α1A was tested using a recombinant human α1A receptor CHO cell line which additionally also recombinantly expresses mtAeq (mitochondrial aequorin). Antagonism against the adrenoreceptor α2A was tested using a recombinant human α2A-Gα16 receptor fusion protein CHO cell line (PerkinElmer Life Sciences) which additionally also recombinantly expresses mtAeq. Antagonism against the adrenoreceptor α2B was tested using a recombinant human α2B receptor CHO cell line (PerkinElmer Life Sciences) which additionally also recombinantly expresses mtAeq. Antagonism against the adrenoreceptor α2C was tested using a recombinant human α2C receptor CHO cell line which additionally also recombinantly expresses a chimaric G protein (Gαqi3) and mtOb (mitochondrial obelin).
The cells were cultivated at 37° C. and 5% CO2 in Dulbecco's modified Eagle's Medium/NUT mix F12 with L-glutamine which additionally contains 10% (v/v) inactivated foetal calf serum, 1 mM sodium pyruvate, 0.9 mM sodium bicarbonate, 50 U/ml penicillin, 50 μg/ml streptomycin, 2.5 μg/ml amphotericin B and 1 mg/ml Geneticin. The cells were passaged with enzyme-free Hank's-based cell dissociation buffer. All cell culture reagents used are from Invitrogen (Carlsbad, USA).
Luminescence measurements were carried out on white 384-well microtitre plates. 2000 cells/well were plated in a volume of 25 μl and cultivated for one day at 30° C. and 5% CO2 in cell culture medium with coelenterazine (α2A and α2B: 5 μg/ml; α1a/c and α2C: 2.5 μg/ml). Serial dilutions of the test substances (10 μl) were added to the cells. After 5 minutes, noradrenalinee was added to the cells (35 μl; final concentrations: 20 nM (α1a/c and α2C) or 200 nM (α2A and α2B)), and the emitted light was measured for 50 seconds using a CCD (charge-coupled device) camera (Hamamatsu Corporation, Shizuoka, Japan) in a light-tight box. The test substances were tested up to a maximum concentration of 10 μM. The IC50 values were calculated from the appropriate dose-response curves.
Turning to `CCOC(=O)C1CCCN(C2CCN(C(=O)c3ccc(CC4(C)COC4)cc3)CC2)C1` (centres unmarked) [Example 24, Ethyl 1′-{4-[(3-methyloxetan-3-yl)methyl]benzoyl}-1,4′-bipiperidine-3-carboxylate], the IC50 came out at 17 nM. The result for `CC1CCCN(C2CCN(C(=O)c3ccc(C4(C)COC4)cc3)CC2)C1` (centres unmarked) [Example 25, (3-Methyl-1,4′-bipiperidin-1′-yl) [4-(3-methyloxetan-3-yl)phenyl]methanone] reads 101 nM; that for `CCOC(=O)C1CCCN(C2CCN(C(=O)c3ccc(C4(C)COC4)cc3)CC2)C1` (centres unmarked) [Example 26, Ethyl 1′-[4-(3-methyloxetan-3-yl)benzoyl]-1,4′-bipiperidine-3-carboxylate], 12 nM. As to `CCOC(=O)C(C)(C)c1ccc(C(=O)N2CCC(N3CCCC(C)C3)CC2)cc1` (centres unmarked) [Example 27, 1-{1-[4-(1-Ethoxy-2-methyl-1-oxopropan-2-yl)benzoyl]piperidin-4-yl}-3-methylpiperidine trifluoroacetic acid salt], the IC50 stood at 162 nM. The result for `CC1CCCN(C2CCN(C(=O)c3ccc(C(C)(C)CO)cc3)CC2)C1` (centres unmarked) [Example 28, 1-{1-[4-(1-Hydroxy-2-methylpropan-2-yl)benzoyl]piperidin-4-yl}-3-methylpiperidine trifluoroacetic acid salt] reads 156 nM. For `CCOC(=O)C1CCCN(C2CCN(C(=O)c3ccc(C(C)(C)C(=O)OCC)cc3)CC2)C1` (centres unmarked) [Example 29, 3-(Ethoxycarbonyl)-1-{1-[4-(1-ethoxy-2-methyl-1-oxopropan-2-yl)benzoyl]piperidin-4-yl}piperidine trifluoroacetic acid salt] the value was 29 nM; for `CCOC(=O)C1(c2ccc(C(=O)N3CCC(N4CCCC(C)C4)CC3)cc2)CC1` (centres unmarked) [Example 30, 1-(1-{4-[1-(Ethoxycarbonyl)cyclopropyl]benzoyl}piperidin-4-yl)-3-methylpiperidine trifluoroacetic acid salt], 166 nM.

Turning to `CC1CCCN(C2CCN(C(=O)c3ccc(C4(CO)CC4)cc3)CC2)C1` (centres unmarked) [Example 31, 1-(1-{4-[1-(Hydroxymethyl)cyclopropyl]benzoyl}piperidin-4-yl)-3-methylpiperidine trifluoroacetic acid salt], the IC50 stood at 403 nM. Take `CCOC(=O)c1ccc(C(=O)N2CCC(N3CCCC(C)C3)CC2)cc1` (centres unmarked) [Example 32, 1-{1-[4-(Ethoxycarbonyl)benzoyl]piperidin-4-yl}-3-methylpiperidine trifluoroacetic acid salt]: the half-inhibitory concentration (IC50) was determined as 222 nM. The result for `CCOC(=O)Cc1ccc(C(=O)N2CCC(N3CCCC(C)C3)CC2)cc1` (centres unmarked) [Example 33, 1-{1-[4-(2-Ethoxy-2-oxoethyl)benzoyl]piperidin-4-yl}-3-methylpiperidine trifluoroacetic acid salt] reads 497 nM.

Take `CCOC(=O)Cc1ccc(C(=O)N2CCC(N3CCCC(C(=O)OCC)C3)CC2)cc1` (centres unmarked) [Example 34, 3-(Ethoxycarbonyl)-1-{1-[4-(2-ethoxy-2-oxoethyl)benzoyl]piperidin-4-yl}piperidine trifluoroacetic acid salt]: the IC50 came out at 86 nM. For `CCCCN(C)C(=O)c1ccc(C(=O)N2CCC(N3CCCC(C)C3)CC2)cc1` (centres unmarked) [Example 35, N-Butyl-N-methyl-4-[(3-methyl-1,4′-bipiperidin-1′-yl)carbonyl]benzamide] the value was 124 nM. For `COCCNC(=O)c1ccc(C(=O)N2CCC(N3CCCC(C)C3)CC2)cc1` (centres unmarked) [Example 36, N-(2-Methoxyethyl)-4-[(3-methyl-1,4′-bipiperidin-1′-yl)carbonyl]benzamide] the value was 479 nM; for `CCN(CCOC)C(=O)c1ccc(C(=O)N2CCC(N3CCCC(C)C3)CC2)cc1` (centres unmarked) [Example 37, 1-(1-{4-[Ethyl-(2-methoxyethyl)carbamoyl]benzoyl}piperidin-4-yl)-3-methylpiperidine trifluoroacetic acid salt], 406 nM; for `CC1CCCN(C2CCN(C(=O)c3ccc(C(=O)NC(C)(C)C)cc3)CC2)C1` (centres unmarked) [Example 38, 1-{1-[4-(tert-Butylcarbamoyl)benzoyl]piperidin-4-yl}-3-methylpiperidine trifluoroacetic acid salt], 139 nM.

Take `CC1CCCN(C2CCN(C(=O)c3ccc(-c4cnco4)cc3)CC2)C1` (centres unmarked) [Example 39, (3-Methyl-1,4′-bipiperidin-1′-yl) [4-(1,3-oxazol-5-yl)phenyl]methanone]: the IC50 is 244 nM. Take `CC(C)(C)c1ccc(C(=O)N2CCC(N3CCCC(OC(=O)N4CCCC4)C3)CC2)cc1` (centres unmarked) [Example 40, 1′-(4-tert-Butylbenzoyl)-1,4′-bipiperidin-3-yl-pyrrolidin-1-carboxylate trifluoroacetic acid salt]: the IC50 was 127 nM. `COC(=O)C(C)(C)c1ccc(C(=O)N2CCC(N3CCCC(C)C3)CC2)c(F)c1` (centres unmarked) [Example 41, Methyl 2-{3-fluoro-4-[(3-methyl-1,4′-bipiperidin-1′-yl)carbonyl]phenyl}-2-methylpropanoate trifluoroacetic acid salt]: the IC50 came out at 199 nM.

`CCOC(=O)C1CCCN(C2CCN(C(=O)c3ccc(C(C)(C)OC)cc3)CC2)C1` (centres unmarked) [Example 42, Ethyl 1′-[4-(2-methoxypropan-2-yl)benzoyl]-1,4′-bipiperidine-3-carboxylate]: the IC50 was found to be 26 nM. For `CC(c1ccccc1)N(C)C(=O)c1ccc(C(=O)N2CCC(N3CCC[C@@H](C)C3)CC2)cc1` (stereo partly drawn) [Example 43, N-Methyl-4-{[(3R)-3-methyl-1,4′-bipiperidin-1′-yl]carbonyl}-N-(1-phenylethyl)benzamide] the value was 39 nM.

As to `CCCC(C)NC(=O)c1ccc(C(=O)N2CCC(N3CCCC(C)C3)CC2)cc1` (centres unmarked) [Example 44, 4-[(3-methyl-1,4′-bipiperidin-1′-yl)carbonyl]-N-(pentan-2-yl)benzamide], the IC50 was found to be 55 nM. The result for `CC1CCCN(C2CCN(C(=O)c3ccc(C(=O)NCc4ccncc4)cc3)CC2)C1` (centres unmarked) [Example 45, 4-[(3-methyl-1,4′-bipiperidin-1′-yl)carbonyl]-N-(pyridin-4-yl-methyl) benzamide] reads 82 nM; that for `CC1CCN(C(=O)c2ccc(C(=O)N3CCC(N4CCCC(C)C4)CC3)cc2)C(C)C1` (centres unmarked) [Example 46, (2,4-dimethylpiperidin-1-yl){4-[(3-methyl-1,4′-bipiperidin-1′-yl)carbonyl]phenyl} methanone], 128 nM; that for `CC1CCCN(C2CCN(C(=O)c3ccc(C(=O)NC(C)C(C)C)cc3)CC2)C1` (centres unmarked) [Example 47, 4-[(3-methyl-1,4′-bipiperidin-1′-yl)carbonyl]-N-(3-methylbutan-2-yl)benzamide], 150 nM. `CC(C)CN(C)C(=O)c1ccc(C(=O)N2CCC(N3CCCC(C)C3)CC2)cc1` (centres unmarked) [Example 48, N-methyl-4-[(3-methyl-1,4′-bipiperidin-1′-yl)carbonyl]-N-(2-methylpropyl) benzamide]: the IC50 was determined as 199 nM. The result for `CC1CCCN(C2CCN(C(=O)c3ccc(C(=O)N(C)C4CCCCC4)cc3)CC2)C1` (centres unmarked) [Example 49, N-cyclohexyl-N-methyl-4-[(3-methyl-1,4′-bipiperidin-1′-yl)carbonyl] benzamide] reads 348 nM; that for `Cc1cc(CN(C)C(=O)c2ccc(C(=O)N3CCC(N4CCCC(C)C4)CC3)cc2)on1` (centres unmarked) [Example 50, N-methyl-4-[(3-methyl-1,4′-bipiperidin-1′-yl)carbonyl]-N-[(3-methyl-1,2-oxazol-5-yl)methyl]benzamide], 169 nM; that for `CCCN(CC1CC1)C(=O)c1ccc(C(=O)N2CCC(N3CCCC(C)C3)CC2)cc1` (centres unmarked) [Example 51, N-(cyclopropyl-methyl)-4-[(3-methyl-1,4′-bipiperidin-1′-yl)carbonyl]-N-propylbenzamide], 180 nM. The result for `CC1CCCN(C2CCN(C(=O)c3ccc(C(=O)N(C)CC4(C)COC4)cc3)CC2)C1` (centres unmarked) [Example 52, N-methyl-4-[(3-methyl-1,4′-bipiperidin-1′-yl)carbonyl]-N-[(3-methyloxetan-3-yl)methyl]benzamide] reads 182 nM.
